Data from patent publication US5936065A, “CS-1 peptidomimetics, compositions and methods of using the same” (Cytel Corporation, priority 1995, dated 1999).
Each block holds one molecule with its values, some of them ahead of it. Square brackets hold non-standard residues; d marks the D form. Peptide text beside a SMILES is read from it. * marks the point of attachment. NHOctadecyl = CCCCCCCCCCCCCCCCCCN*; Morpholide = C1CN(*)CCO1; PhAc = O=C(Cc1ccccc1)*; Ahx = NCCCCCC(=O)O

Experiments:
[1] = system: BALB/c mice; assay: Adoptive transfer delayed type hypersensitivity (oxazolone) in mice; format: in vivo, mouse; conditions: versus vehicle alone; implanted pump, 24 hours
Experimental: An adoptive transfer delayed-type hypersensitivity murine model has been developed using splenic T cells primed to oxazolone. This model is described in Elices et al., Clin. Exp. Rheum., 11(Suppl. 8):577-580 (1993), whose procedures were followed here.
Thus, BALB/c mice were shaved on the belly and painted (50 μl on the belly and 5 μl on each paw) with three percent oxazolone in acetone/olive oil (4:1) at days zero and 1. At day 5, the mice were sacrificed, their spleens removed, and splenic T cells were obtained via nylon wool columns.
Normal saline or saline containing 25×10^6 /animal of the oxazolone-immune T cells were separately injected into naive mice. The mice were then challenged by painting 10 μl of 2 percent oxazolone onto one ear each. All procedures were carried out under sterile conditions and in endotoxin-free buffers.
Prior to challenge or saline injection, the mice were implanted with pumps that subcutaneously administered normal saline, normal saline containing the compound, Compound ID No. 896.52, N-phenylacetyl-Leu-Asp-Phe-D-Pro-NH2, or normal saline containing a compound with a scrambled sequence continually at 6 mg/kg/day for a 24-hour time period. The swelling diameter at the site of challenge or saline injection was measured with a microcaliper 24 hours thereafter.
An expanded study was carried out as described above except that a scrambled compound control was not used as a control for further inhibitor compounds of Table 1 with larger groups of mice. Statistical analyses were carried out versus injection of vehicle alone.

[2] = system: New Zealand white rabbits; assay: Treatment of asthmatic rabbits (house dust mite antigen challenge, crossover study); format: in vivo, rabbit; conditions: 100 mg/kg nebulizer
Experimental: Six New Zealand white rabbits were immunized with house dust mite antigen from birth through four months of age. Upon immunization, three rabbits received a single nebulizer administration of the inhibitor compound, Compound ID No. 1051.01, N-phenylacetyl-Leu-Asp-Phe-morpholinamide in aqueous 50 percent ethanol as diluent in an amount of 100 mg/kg, and the other three received diluent alone. All of the rabbits were challenged with house dust mite antigen about 15-30 minutes after administration of the compound, with those animals not receiving compound serving as controls.
Once immunized and challenged, the inflammatory state subsides to a basal level within about three weeks. The three animals used as controls were thereafter used as subjects for receipt of an inhibitor compound, and the three rabbits that initially received the compound can serve as controls.
Such a crossover study was done here. […]
Initial pulmonary function, measured by dynamic compliance (Cdyn) and lung resistance (RL) , and bronchoalveolar lavage (BAL) to obtain an effector cell count, here eosinophils, were conducted prior to administration of the compound or diluent for both portions of this crossover study. […]

[3] = biological target: T1, VLA-4 receptor (Homo sapiens, UniProt P05556+P13612); assay: In vitro binding assay: inhibition of binding of 51Cr-labeled Jurkat cells to solid phase-bound CS-1 compound (SEQ ID NO:1); format: cell-based
T1 construct: inflammatory cells that contain the VLA-4 receptor [Jurkat cells; host or cells: Jurkat cells (human T lymphoblastic line)
Experimental: Binding inhibition is measured here as a concentration of compound that inhibits one-half the binding between a standard number of Jurkat cells and a standard amount of CS-1 compound bound to the surface of a microtiter plate well. Those concentrations are conveniently expressed as IC50 values, smaller numbers indicating a lower concentration required to inhibit 50 percent binding and therefore greater potency. Further specifics of this assay are provided hereinafter.
Jurkat cells (ATCC TIB 152), a human T lymphoblastic line, labeled with ^51 chromium were used to assay in vitro binding inhibition provided by various compounds discussed herein.
The plates were prepared as follows: The 25-mer CS-1 compound (SEQ ID NO:1) dissolved at 0.5-1 μg/ml in a buffer of 0.1M NaHCO3 at pH 9.5 that also contained 10 μg/ml of bovine serum albumin (BSA) or a conjugate of the CS-1 compound linked to ovalbumin (CS-1-OVA) dissolved at 1-2.5 μg/ml in the same buffer was used as the substrate. Each well of the microtiter plates was coated with 50 μl of substrate or buffer alone for controls. The wells were permitted to dry out completely and were then rinsed twice with PBS at pH 7.4. Non-specific binding sites of each well were then blocked using 200 μl per well of RPMI/1 percent BSA for two hours at room temperature.
Jurkat cells (3-5×10^6 cells) were placed into a 15 ml Falcon™ round-bottom tube with a cap. The tube was centrifuged, and the extra medium was then removed.
Two hundred microliters of a ^51 Cr labeling solution were added to the centrifuged cells and maintained in contact with the cells for 90-120 minutes in a warm room. […] Longer contact times provide a greater amount of labeling but lower cell viability.
The labeled cells are washed with (i) complete medium, (ii) 1 mM EDTA/PBS and then (iii) RPM1/1 percent BSA free of serum components. The cells are centrifuged after each washing. The cells are finally resuspended in serum-free RPMI/1 percent BSA at a concentration of 1×10^6 viable cells/ml, which provides a concentration that is diluted by one-half in the assay.
Inhibitor compounds are prepared as stock solutions at 20 mg/ml in DMSO in 1.5 ml cryogenic screwcap vials, and were stored at -70° C. Using Flow™ round-bottom or V-bottom microtiter plates, the inhibitor compounds were prepared at twice the assay concentration in RPMI/1 percent BSA at 60 μl/well.
Four initial dilutions were typically used.
The ^51 Cr-labeled cells ([…] at 60 μl/well) were then admixed with the diluted compound solutions. The admixtures were maintained at room temperature (about 22° C.) for 30 minutes.
One hundred microliters of each inhibitor compound/cell admixture were transferred to the substrate-coated wells. This was done in triplicate for each dilution. The resulting plates were incubated for 30 minutes at 37° C. and then washed gently three times with RPMI/1 percent BSA at 200 μl/well. Binding was observed microscopically, particularly after the second wash.
The bound cells were then lysed by the addition of a 0.5 percent solution of sodium dodecylsulfate in water at 100 μl/well. The resulting solutions were then processed for counting and calculation of IC50 values following usual procedures.
The data of Table 1 are normalized to the binding of SEQ ID NO:3. […] Multiple assays for the same compound were averaged.

[4] = system: mouse; conditions: in vivo; cited from earlier work
[5] = system: Jurkat T cell line; assay: Binding of Jurkat cells to frozen human RA synovial sections; format: cell-based; conditions: 10-mer at 500 μg/ml; 896.52 at its IC50 value
Experimental: Binding studies were carried out using the Jurkat T cell line and frozen RA synovial sections. […] Stimulated MOLT-4 cells behaved similarly.
The absolute value of that IC50 value is about 0.5 μmolar.

T1 sequence (P13612 34-1032): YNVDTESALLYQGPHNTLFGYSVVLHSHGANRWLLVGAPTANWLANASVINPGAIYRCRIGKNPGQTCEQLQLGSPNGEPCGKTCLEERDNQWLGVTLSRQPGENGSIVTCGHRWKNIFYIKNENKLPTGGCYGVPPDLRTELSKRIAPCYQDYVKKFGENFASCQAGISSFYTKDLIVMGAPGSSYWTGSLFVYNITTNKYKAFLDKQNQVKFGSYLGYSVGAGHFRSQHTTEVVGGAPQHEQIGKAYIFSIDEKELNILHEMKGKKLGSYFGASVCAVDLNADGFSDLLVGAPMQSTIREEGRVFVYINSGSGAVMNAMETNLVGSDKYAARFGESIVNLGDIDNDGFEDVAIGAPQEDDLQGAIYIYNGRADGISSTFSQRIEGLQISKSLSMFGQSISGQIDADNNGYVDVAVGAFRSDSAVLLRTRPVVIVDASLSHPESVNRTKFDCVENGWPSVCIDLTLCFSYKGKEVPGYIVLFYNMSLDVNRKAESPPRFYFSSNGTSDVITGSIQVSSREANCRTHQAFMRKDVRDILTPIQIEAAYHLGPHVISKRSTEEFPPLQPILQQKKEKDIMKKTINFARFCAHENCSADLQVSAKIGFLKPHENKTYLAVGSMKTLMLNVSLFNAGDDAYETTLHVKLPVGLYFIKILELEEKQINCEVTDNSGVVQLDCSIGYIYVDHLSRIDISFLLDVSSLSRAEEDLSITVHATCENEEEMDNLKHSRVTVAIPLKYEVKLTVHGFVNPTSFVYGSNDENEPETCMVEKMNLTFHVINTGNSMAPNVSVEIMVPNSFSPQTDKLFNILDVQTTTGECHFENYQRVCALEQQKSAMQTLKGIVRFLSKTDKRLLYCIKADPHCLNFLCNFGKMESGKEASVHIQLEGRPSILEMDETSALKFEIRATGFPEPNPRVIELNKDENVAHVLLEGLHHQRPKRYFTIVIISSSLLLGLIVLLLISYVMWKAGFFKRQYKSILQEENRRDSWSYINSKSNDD
T1 sequence (P05556 21-798): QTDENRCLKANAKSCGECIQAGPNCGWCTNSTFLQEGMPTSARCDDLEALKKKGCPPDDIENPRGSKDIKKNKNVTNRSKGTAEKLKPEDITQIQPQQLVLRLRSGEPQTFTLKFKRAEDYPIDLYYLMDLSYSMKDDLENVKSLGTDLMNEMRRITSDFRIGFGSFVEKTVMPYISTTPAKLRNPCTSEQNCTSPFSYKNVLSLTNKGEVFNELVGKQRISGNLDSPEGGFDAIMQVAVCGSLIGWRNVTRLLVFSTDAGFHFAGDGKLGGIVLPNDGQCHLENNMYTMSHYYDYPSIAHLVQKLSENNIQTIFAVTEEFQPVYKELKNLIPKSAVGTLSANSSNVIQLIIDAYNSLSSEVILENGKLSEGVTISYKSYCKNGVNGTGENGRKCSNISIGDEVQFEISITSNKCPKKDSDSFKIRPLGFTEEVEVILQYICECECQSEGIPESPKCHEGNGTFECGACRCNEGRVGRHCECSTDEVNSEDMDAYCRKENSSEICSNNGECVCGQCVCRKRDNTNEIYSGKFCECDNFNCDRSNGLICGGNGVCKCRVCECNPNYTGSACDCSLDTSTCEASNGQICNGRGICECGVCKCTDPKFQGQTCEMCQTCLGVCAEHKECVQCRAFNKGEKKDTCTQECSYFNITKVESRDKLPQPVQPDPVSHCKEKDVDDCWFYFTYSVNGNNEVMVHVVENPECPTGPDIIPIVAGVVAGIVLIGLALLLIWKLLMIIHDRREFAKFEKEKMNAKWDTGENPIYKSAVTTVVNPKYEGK

Molecule: CC(C)C[C@H](NC(=O)Cc1ccccc1)C(=O)N[C@@H](CC(=O)O)C(=O)N[C@@H](Cc1ccccc1)C(=O)N1CCC(O)CC1 [1070.02, .phi.Ac--Leu--Asp--Phe--4-hydroxpiperidinamide]
Percent Inhibition of post-challenge swelling, expanded study [1]: 29%

binding inhibition, in words (compared with standard 10-mer of SEQ ID NO:3 or other compounds) [3]: greatest potency
Molecule: CC(C)C[C@H](NC(=O)Cc1ccccc1)C(=O)N[C@@H](CC(=O)O)C(=O)N[C@@H](Cc1ccccc1)C(=O)N1CCOCC1 [1051.01, N-phenylacetyl-Leu-Asp-Phe-morpholinamide] (PhAc-Leu-Asp-Phe-Morpholide)
Cdyn value over six hours after challenge ([2]; FIG. 4A): stayed at about the initial value
RL values over six hours after challenge, percent of initial value ([2]; FIG. 4B): ≤ 200%

Molecule: Arg-Gly-Asp [Arg-Gly-Asp peptide]
inhibition of contact hypersensitivity / T lymphocyte recruitment to skin inflammatory sites [4]: also inhibitory

Molecule: CC(C)C[C@H](NC(=O)Cc1ccccc1)C(=O)N[C@@H](CC(=O)O)C(=O)N[C@@H](Cc1ccccc1)C(=O)N1CCN(CC(=O)O)CC1 [1111.06, .phi.Ac--Leu--Asp--Phe--4-N(carboxy-methyl)piperazinamide]
Percent Inhibition of post-challenge swelling, expanded study [1]: 30%
Relative Potency ([3]; binding inhibition potency (IC50) normalized to standard compound of SEQ ID NO:3 = 1, multiple assays averaged, about one-tenth or less assigned zero): 2600

Molecule: CC[C@H](C)[C@H](NC(=O)[C@H](CCC(=O)O)NC(=O)[C@@H]1CCCN1C(=O)CN)C(=O)N[C@@H](CC(C)C)C(=O)N[C@@H](CC(=O)O)C(=O)N[C@H](C(=O)N1CCC[C@H]1C(=O)N[C@@H](CO)C(=O)N[C@H](C(=O)O)[C@@H](C)O)C(C)C [SEQ ID NO:3, GPEILDVPST] (H-GPEILDVPST-OH)
inhibition of Jurkat cell adhesion to RA synovial sections [5]: could be inhibited

Molecule: CCCCCCCCCCCCCCCCCCNC(=O)CCCCCNC(=O)[C@@H]1CCCN1C(=O)[C@H](Cc1ccccc1)NC(=O)[C@H](CC(=O)O)NC(=O)[C@H](CC(C)C)NC(=O)Cc1ccccc1 [1068.01, phenylacetyl-Leu-Asp-Phe-Pro-NH(CH2)5 C(O)NHC18 H37] (PhAc-LDFP[Ahx]-NHOctadecyl)
binding inhibition, in words (compared with standard 10-mer of SEQ ID NO:3 or other compounds) [3]: binding inhibition similar to that exhibited by the standard 10-mer compound of SEQ ID NO:3
Relative Potency ([3]; prodrug compounds, potency before enzymatic conversion to active form, relative to SEQ ID NO:3 = 1): .91
